Source: US11802128B2, “Azetidine and pyrrolidine PARP1 inhibitors and uses thereof” (Xinthera, Inc., priority 2021, dated 2023)
Read-outs that look alike come from different tables or passages of the source.

Assays:
DLD-1 BRCA2(−/−) cells = test: Cell growth inhibition assay (CellTiter-Glo cell viability, 7 days); type: cell-based; conditions: Homo sapiens, 168 h
Excerpt: (§1) The objective of this study is to evaluate the effect of invention compounds on cell proliferation through the cell viability assay in DLD-1 BRCA2(−/−) and parental isogenic pair and MDA-MB-436 (mutated BRCA1) cell lines. The CellTiter-Glo (CTG) based cell viability assay is designed to determine the number of viable cells in the culture because of compound effect, by quantifying ATP, which indicates the presence of metabolically active cells.
(§2) DLD-1 BRCA2(−/−) and parental isogenic pair were cultured in RPMI 1640 supplemented with 10% fetal bovine serum (FBS), and MDA-MB-436 cells were cultured in DMEM supplemented with 10% FBS. Both are culture at 37° C. with 5% CO2. Invention compounds were distributed to the 384 well plate (Corning, 3764) using Echo acoustic liquid handler to form a 1:3 serially diluted final concentration with top dose of 10 or 30 μM. The cells were seeded into the plate in the density of 50 cells/well (DLD-1 parental), 200 cells/well (DLD-1 BRCA2−/−), or 500 cells/well (MDA-MB-436). After a short spun, the cells were cultured in a well moisturized incubator at 37° C. with 5% CO2 for 7 days without disturbance. The cell viability was measured by CellTiter Glo 2.0 assay kit (Promega, G9243), and growth inhibition rate was calculated and plotted against final compound concentration, and the data were fitted in Xfit to generate IC50.

[1] = system: MDA-MB-436 (mutated BRCA1) cells; test: as above; type: cell-based; conditions: Homo sapiens, 168 h, MDA-MB-436, 7 days
Excerpt: as §1, §2

PARP1 = PARP1 (Homo sapiens (Human), UniProt P09874); test: Biochemical fluorescent polarization (FP) assay, displacement of PARPi-FL; type: binding; conditions: 20 nM protein, 3 nM PARPi-FL, 4 h at room temperature
Chain of PARP1 (P09874 whole entry): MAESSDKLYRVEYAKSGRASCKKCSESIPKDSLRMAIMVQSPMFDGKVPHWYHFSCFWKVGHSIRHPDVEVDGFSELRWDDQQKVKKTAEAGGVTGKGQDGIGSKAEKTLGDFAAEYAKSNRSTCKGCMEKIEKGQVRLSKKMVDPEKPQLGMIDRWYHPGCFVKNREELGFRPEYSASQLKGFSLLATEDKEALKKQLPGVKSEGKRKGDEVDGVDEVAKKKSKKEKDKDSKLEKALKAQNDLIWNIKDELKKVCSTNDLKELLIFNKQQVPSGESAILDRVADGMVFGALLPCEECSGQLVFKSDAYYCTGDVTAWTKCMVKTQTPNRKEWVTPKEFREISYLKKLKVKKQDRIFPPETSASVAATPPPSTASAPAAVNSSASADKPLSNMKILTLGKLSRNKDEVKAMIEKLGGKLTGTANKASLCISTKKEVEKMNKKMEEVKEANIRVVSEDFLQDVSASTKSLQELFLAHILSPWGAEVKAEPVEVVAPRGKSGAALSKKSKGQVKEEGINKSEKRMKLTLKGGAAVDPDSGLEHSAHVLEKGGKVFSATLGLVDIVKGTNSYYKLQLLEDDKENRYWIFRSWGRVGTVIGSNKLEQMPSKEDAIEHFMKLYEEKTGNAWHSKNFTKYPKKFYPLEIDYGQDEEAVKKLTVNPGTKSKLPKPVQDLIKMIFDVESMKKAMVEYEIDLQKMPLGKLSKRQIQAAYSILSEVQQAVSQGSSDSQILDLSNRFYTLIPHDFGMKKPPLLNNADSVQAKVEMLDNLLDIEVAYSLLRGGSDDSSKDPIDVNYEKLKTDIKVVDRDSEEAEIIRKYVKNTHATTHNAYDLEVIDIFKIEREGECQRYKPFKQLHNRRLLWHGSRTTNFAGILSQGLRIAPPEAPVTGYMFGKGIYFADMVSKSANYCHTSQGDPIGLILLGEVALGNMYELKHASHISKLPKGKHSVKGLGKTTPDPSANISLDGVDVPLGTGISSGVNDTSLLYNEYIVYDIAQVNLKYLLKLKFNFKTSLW
Method: (§3) The assay was performed utilizing the following method:
(§4) 100% DMSO was used for the high (with protein) and low (without protein) control samples. 20 nL of compound or DMSO alone was added to individual assay plate wells.
(§5) PARP1 and PARP2 protein were expressed, purified, and diluted in assay buffer containing 50 mM Tris pH 8.0, 0.001% Triton X-100, 10 mM MgCl2, 150 mM NaCl to a final concentration of 20 nM. The PARPi-FL was then added at a final concentration of 3 nM.
(§6) The assay plate is centrifuged at 1000 rpm for 1 min and incubated for 4 h at room temperature.
(§7) The fluorescent polarization is read using an Envision plate reader using the following settings: […]

PARP2 = PARP2 (Homo sapiens (Human), UniProt Q9UGN5); test: as above; type: binding
Chain of PARP2 (Q9UGN5 whole entry): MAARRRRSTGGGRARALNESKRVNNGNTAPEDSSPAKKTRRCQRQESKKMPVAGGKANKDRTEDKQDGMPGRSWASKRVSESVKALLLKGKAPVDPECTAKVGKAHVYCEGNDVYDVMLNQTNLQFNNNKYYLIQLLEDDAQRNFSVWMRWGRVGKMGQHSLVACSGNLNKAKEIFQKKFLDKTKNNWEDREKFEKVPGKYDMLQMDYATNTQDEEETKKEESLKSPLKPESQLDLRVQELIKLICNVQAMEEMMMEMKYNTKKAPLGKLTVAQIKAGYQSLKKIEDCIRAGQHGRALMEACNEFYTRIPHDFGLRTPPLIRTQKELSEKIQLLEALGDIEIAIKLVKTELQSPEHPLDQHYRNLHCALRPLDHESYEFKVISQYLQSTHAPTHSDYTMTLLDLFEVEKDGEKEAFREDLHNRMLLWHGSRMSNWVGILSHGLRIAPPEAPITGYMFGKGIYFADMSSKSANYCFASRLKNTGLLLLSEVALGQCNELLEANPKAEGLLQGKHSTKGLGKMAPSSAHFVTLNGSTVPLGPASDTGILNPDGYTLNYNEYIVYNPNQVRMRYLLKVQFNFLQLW
Method: as §3, §4, §5, §6, §7

[2] = 20 nM protein, 3 nM PARPi-FL, 4 h at room temperature, read-out: IC50 FP PARP2

Row | SMILES | EC50 (DLD-1 BRCA2(−/−) cells) | EC50 [1] | IC50 (PARP1) | IC50 (PARP2; [2]) | IC50 (PARP2)
1 | CCc1cc2ncc(CN3CC[C@@H](Oc4ccc(C(=O)NC5CC5)nc4)C3)cc2[nH]c1=O [Example 4, N-cyclopropyl-5-{[(3R)-1-[(7-ethyl-6-oxo-5H-1,5-naphthyridin-3-yl)methyl]pyrrolidin-3-yl]oxy}pyridine-2-carboxamide] | 2 nM | 1.1 nM | 5.8 nM | 11000 nM | –
2 | Cc1cc2ncc(CN3CC[C@@H](Oc4ccc(C(=O)NC5CC5)nc4)C3)cc2[nH]c1=O [Example 7, N-cyclopropyl-5-{[(3R)-1-[(7-methyl-6-oxo-5H-1,5-naphthyridin-3-yl)methyl]pyrrolidin-3-yl]oxy}pyridine-2-carboxamide] | 13 nM | 8.3 nM | 7.4 nM | 66000 nM | –
3 | CCc1cc2ncc(CN3CC[C@@](C)(Oc4ccc(C(=O)NC)nc4)C3)cc2[nH]c1=O [Example 12, 5-{[(3R)-1-[(7-ethyl-6-oxo-5H-1,5-naphthyridin-3-yl)methyl]-3-methylpyrrolidin-3-yl]oxy}-N-methylpyridine-2-carboxamide] | 83 nM | 36 nM | 6.6 nM | 62000 nM | –
4 | CCc1cc2ncc(CN3CC(Nc4ccc(C(=O)NC)nc4)C3)cc2[nH]c1=O [Example 14, 5-({1-[(7-ethyl-6-oxo-5H-1,5-naphthyridin-3-yl)methyl]azetidin-3-yl}amino)-N-methylpyridine-2-carboxamide] | 9.8 nM | 4.1 nM | 5.2 nM | 14000 nM | –
5 | CCc1cc2ncc(CN3C[C@H](Oc4ccc(C(=O)NC)nc4)[C@H]3C)cc2[nH]c1=O [Example 17, 5-{[(2R,3S)-1-[(7-ethyl-6-oxo-5H-1,5-naphthyridin-3-yl)methyl]-2-methylazetidin-3-yl]oxy}-N-methylpyridine-2-carboxamide] | 1.2 nM | 0.79 nM | 7.3 nM | 21000 nM | –
6 | CCc1cc2ncc(CN3C[C@H](Oc4ccc(C(=O)NC)nc4)[C@@H]3C)cc2[nH]c1=O [Example 20, 5-(((2S,3S)-1-((7-ethyl-6-oxo-5,6-dihydro-1,5-naphthyridin-3-yl)methyl)-2-methylazetidin-3-yl)oxy)-N-methylpicolinamide] | 40 nM | 35 nM | 5.6 nM | 19000 nM | –
7 | CCc1cc2ncc(CN3CC(Oc4ccc(C(=O)NC5CC5)nc4)C3)cc2[nH]c1=O [Example 21, N-cyclopropyl-5-({1-[(7-ethyl-6-oxo-5H-1,5-naphthyridin-3-yl)methyl]azetidin-3-yl}oxy)pyridine-2-carboxamide] | 1.8 nM | 1.2 nM | 6.6 nM | 14000 nM | –
8 | CCc1cc2ncc(CN3CC(Oc4ccc(C#N)cc4)C3)cc2[nH]c1=O [Example 22, 4-({1-[(7-ethyl-6-oxo-5H-1,5-naphthyridin-3-yl)methyl]azetidin-3-yl}oxy)benzonitrile] | 37 nM | 27 nM | 5.1 nM | 16000 nM | –
9 | CCc1cc2ncc(CN3CC(Oc4ccc(C#N)nc4)C3)cc2[nH]c1=O [Example 24] | 13 nM | 24 nM | 9.1 nM | 17000 nM | –
10 | CNC(=O)c1ncc(O[C@@H]2CCN(Cc3cnc4cc(C5CC5)c(=O)[nH]c4c3)C2)cc1F [Example 25] | 36 nM | 41 nM | 11 nM | 25000 nM | –
11 | Cc1cc2ncc(CN3CC[C@@H](Oc4cnc(C(=O)NC5CC5)c(F)c4)C3)cc2[nH]c1=O [Example 26] | 55 nM | 60 nM | 12 nM | > 100000 nM | –
12 | CCc1cc2ncc(CN3CC[C@@H](Oc4cnc(C(=O)NC)c(F)c4)C3)cc2[nH]c1=O [Example 27] | 19 nM | 18 nM | 6.7 nM | 9100 nM | –
13 | CCc1cc2ncc(CN3CC[C@@H](Oc4ccc(C(=O)NC)nc4C#N)C3)cc2[nH]c1=O [Example 28] | 15 nM | 3.3 nM | 3.9 nM | > 100000 nM | –
14 | CCc1cc2ncc(CN3CC[C@@H](Oc4ccc(C#N)cn4)C3)cc2[nH]c1=O [Example 29] | 78 nM | 140 nM | 11 nM | 72000 nM | –
15 | CCc1nc2cc(F)c(CN3CC(Oc4ccc(C(=O)NC)nc4)C3)cc2[nH]c1=O [Example 30] | 15 nM | 47 nM | 7.7 nM | > 100000 nM | –
16 | CCc1cc2ncc(CN3C[C@H](Oc4ccc(C(=O)NC)nc4)C[C@H]3C)cc2[nH]c1=O [Example 31] | 13 nM | 31 nM | 37 nM | > 100000 nM | –
17 | CCc1nc2cc(F)c(CN3CC[C@@H](Oc4ccc(C(=O)NC)nc4)C3)cc2[nH]c1=O [Example 32] | 6.4 nM | 16 nM | 6.8 nM | > 100000 nM | –
18 | CCc1cc2ncc(CN3CC[C@@H](Oc4ccc(C(=O)NC5COC5)nc4)C3)cc2[nH]c1=O [Example 33] | 4.2 nM | 3.7 nM | 5.5 nM | 33000 nM | –
19 | CCc1cc2ncc(CN3C[C@H](Oc4ccc(C#N)cn4)[C@H]3C)cc2[nH]c1=O [Example 34] | 150 nM | 84 nM | 13 nM | 12000 nM | –
20 | CNC(=O)c1ccc(O[C@@H]2CCN(Cc3cnc4c(c3)[nH]c(=O)c3ccoc34)C2)cn1 [Example 35] | 9.9 nM | 32 nM | 3.6 nM | > 100000 nM | –
21 | CCc1cc2ncc(CN3C[C@H](Oc4ccc(C#N)nc4)[C@H]3C)cc2[nH]c1=O [Example 36] | 12 nM | 3.7 nM | 5 nM | 15000 nM | –
22 | Cc1cc2ncc(CN3C[C@H](Oc4ccc(C#N)nc4)[C@H]3C)cc2[nH]c1=O [Example 37] | 80 nM | 66 nM | 4.5 nM | > 100000 nM | –
23 | CCc1cc2ncc(CN3C[C@H](Oc4cnc(C(=O)NC)c(F)c4)[C@H]3C)cc2[nH]c1=O [Example 38] | 2.9 nM | 2.3 nM | 6.1 nM | 10000 nM | –
24 | [2H]C([2H])([2H])NC(=O)c1ccc(O[C@H]2CN(Cc3cnc4cc(CC)c(=O)[nH]c4c3)[C@@H]2C)cn1 [Example 39] | 1.3 nM | 1.1 nM | 4.3 nM | – | 5900 nM
25 | CCc1cc2ncc(CN3CC(n4ccc5nc(C(=O)NC)ccc54)C3)cc2[nH]c1=O [Example 40] | 180 nM | 130 nM | 5.5 nM | 32000 nM | –
26 | CNC(=O)c1ccc(O[C@H]2CN(Cc3cnc4cc(C5CC5)c(=O)[nH]c4c3)[C@@H]2C)cn1 [Example 41] | 3.2 nM | 3 nM | 7.6 nM | 8300 nM | –
27 | C[C@@H]1[C@@H](Oc2ccc(C(=O)NC3CC3)nc2)CN1Cc1cnc2cc(C3CC3)c(=O)[nH]c2c1 [Example 42] | 2.1 nM | 1.1 nM | 5.8 nM | 6300 nM | –
